Results: paper PMC9745132, “Visualization of real-time receptor endocytosis in dopamine neurons enabled by NTSR1-Venus knock-in mice” (Frontiers in Cellular Neuroscience, 2022)
“And” between values parts separate entries of the source, which are not always exact repeats. Equal values may be shown once. Where a name gives a salt, the structure may show the parent alone. Read-outs that look alike come from different tables or passages of the source. *1 amine or outer side, *2 acyl side, *3 side chain or, on linkers, in order; H or OH if unused. Where a SMILES comes first, the peptide text is derived from it. [ ]: non-standard residue; d: D form. X1 = NCCCC[C@H](N)CN([C@@H](CCCCN)C(=O)[*:2])[*:1]; Tle = CC(C)(C)[C@H](N)C(=O)O

Assays:
[1] = system: hippocampal neurons from Ntsr1^Venus/Venus mice; assay: Intracellular calcium release (Fluo-4) in hippocampal neurons from Ntsr1^Venus/Venus mice; format: cell-based, mouse
Procedure: To isolate hippocampal neurons, P0 pups were removed from the cage of NTSR1-Venus homozygous knock-in breeding pairs. Pups were decapitated, brains were removed dorsal side up into fresh ice-cold Hank’s balanced salt solution (HBSS; Gibco, Grand Island, NY, USA), meninges were removed, and hippocampi were dissected into Hibernate A (Gibco, Grand Island, NY, USA) on ice. Tissue dissociation was carried out with the Papain Dissociation System according to the manufacturer’s protocol (Worthington Biochemical Corporation, Lakewood, NJ, USA). Neurons were plated on Poly-D-Lysine (Sigma) coated surfaces at 100,000 cells per 12 mm coverslip (NeuVitro, Camas, WA, USA) in a 24-well plate for immunostaining or 50,000 cells per well of an 8 well chamber slide (Ibidi, Grafelfing, Germany) for calcium measurements. Plating media [Neurobasal A (Gibco, Grand Island, NY, USA), 1% FBS (Fisher Scientific), 2% B-27 (Gibco, Grand Island, NY, USA), 0.5 mM GlutaMAX (Gibco, Grand Island, NY, USA), and 1x Penicillin/Streptomycin (Invitrogen, Waltham, MA, USA)] was exchanged 1 h after plating to maintenance media (Neurobasal A, 2% B-27, 0.5 mM GlutaMAX, and 1x Penicillin/Streptomycin). Half of the volume of media was exchanged for fresh media every 3–4 days. On day in vitro (DIV) 3 Cytosine arabinoside hydrochloride (Sigma) was added to media with a final concentration of 0.1 μM to decrease glial cell proliferation.
Hippocampal neurons were grown until DIV 7. Fluo-4 NW Calcium Assay kit (Thermo Fisher) was used according to the manufacturer’s protocol. Briefly, drugs were prepared at 4 μM stock solutions in the assay buffer provided without probenecid. […] Fluorescence was imaged with a 10x objective on an (Olympus, Shinjuku City, Tokyo, Japan) IX73 microscope (Fluo-4 em. 506 nm).
Live imaging settings of Fluo-4 were as follows, 79 ms exposure, 2 s intervals for 90 cycles (180 s). […] First regions of interest (ROI) were automatically determined using the analyze particles plug in. […] Relative fluorescence is defined as F/F0 where F corresponds to the cell fluorescence and F0 to the basal fluorescence.

NTSR1-Venus [2] = target: T1, NTSR1-Venus (Mus musculus, UniProt O88319); assay: NTSR1-Venus endocytosis in primary hippocampal neurons (Venus/EEA1 colocalization; live confocal imaging); format: cell-based
T1 construct: monitoring endogenous NTSR1-Venus receptor endocytosis could differentiate NTSR1 agonists; endogenous in cells; host or cells: primary hippocampal neurons from homozygous NTSR1-Venus knock-in mice (C57BL/6N background)
T1 sequence (O88319 whole entry): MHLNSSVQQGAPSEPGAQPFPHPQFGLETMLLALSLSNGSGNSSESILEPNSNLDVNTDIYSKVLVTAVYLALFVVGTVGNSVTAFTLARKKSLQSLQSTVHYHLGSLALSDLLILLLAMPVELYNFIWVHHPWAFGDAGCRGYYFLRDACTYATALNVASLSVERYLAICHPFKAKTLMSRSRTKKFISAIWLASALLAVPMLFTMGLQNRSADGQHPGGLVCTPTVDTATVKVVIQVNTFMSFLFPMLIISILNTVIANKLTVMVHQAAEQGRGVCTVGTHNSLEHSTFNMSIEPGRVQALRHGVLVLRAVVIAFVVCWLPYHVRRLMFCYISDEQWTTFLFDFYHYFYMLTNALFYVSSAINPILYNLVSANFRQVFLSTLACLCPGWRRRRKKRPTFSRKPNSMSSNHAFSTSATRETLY
Procedure: To isolate hippocampal neurons, P0 pups were removed from the cage of NTSR1-Venus homozygous knock-in breeding pairs. […] Neurons were plated on Poly-D-Lysine (Sigma) coated surfaces at 100,000 cells per 12 mm coverslip (NeuVitro, Camas, WA, USA) in a 24-well plate for immunostaining or 50,000 cells per well of an 8 well chamber slide (Ibidi, Grafelfing, Germany) for calcium measurements. Plating media [Neurobasal A (Gibco, Grand Island, NY, USA), 1% FBS (Fisher Scientific), 2% B-27 (Gibco, Grand Island, NY, USA), 0.5 mM GlutaMAX (Gibco, Grand Island, NY, USA), and 1x Penicillin/Streptomycin (Invitrogen, Waltham, MA, USA)] was exchanged 1 h after plating to maintenance media (Neurobasal A, 2% B-27, 0.5 mM GlutaMAX, and 1x Penicillin/Streptomycin).

NTSR1 = target: T2, NTSR1 (Mus musculus, UniProt O88319); assay: Gq activation ebBRET (Gq EMTA, p63RhoGEF-RlucII / rGFP-CAAX) in HEK293 cells, untagged NTSR1; format: cell-based; settings: mean ± SEM
T2 construct: expressed in transfected cells; host or cells: HEK293 (HEK293SL)
T2 sequence (O88319 whole entry): as above
Excerpt: (§1) The mouse coding sequence of NTSR1 was PCR amplified from pCMV6-mNTSR1 (Origene, Rockville, MD, USA) and subcloned upstream from the IRES feature with a STOP codon before IRES into pIRES (Invitrogen, Waltham, MA, USA) and pIRES-Venus vector previously described ([Hamdan et al., 2005]) resulting in expression of either untagged NTSR1 or NTSR1-Venus. […] The pIRES vector was used The rGFP-CAAX BRET and Gq GEMTA biosensors construct were generated as previously described ([Namkung et al., 2016]; [Avet et al., 2022]).
(§2) HEK293 clonal cell line (HEK293SL cells), hereafter referred as HEK293 cells, were a gift from S. Laporte (McGill University, Montreal, Quebec, Canada) and previously described ([Namkung et al., 2016]). Cells were maintained in Dulbecco’s Modified Eagle Medium (DMEM, Wisent, Saint-Jean-Baptiste, QC, Canada) supplemented with 10% fetal bovine serum (FBS, Wisent) and 1% antibiotics [100 U/mL penicillin and 100 μg/mL streptomycin (PS); Wisent]. Cells were grown at 37°C in 5% CO2 and 90% humidity and checked for mycoplasma contamination. […] The total quantity of DNA was completed at 1 μg with salmon sperm DNA (Invitrogen, Waltham, MA, USA). […]
(§3) Forty-eight hours post-transfection, cells were washed once with phosphate-buffered saline (PBS) then incubated 1 h at 37°C in Tyrode buffer (137 mM NaCI, 0.9 mM KCI, 1 mM MgCI2, 1 1.9 mM NaHCO3, 3.6 mM NaH2PO4, 25 mM HEPES, 5.5 mM Glucose, and 1 mM CaCI2, pH 7.4). […] Bioluminescence resonance energy transfer (BRET) was then measured between RlucII (BRET energy donor) and rGFP (enhanced bystander ebBRET acceptor)–tagged proteins. BRET values were read for 1 s per well using a Mithras™ LB940 Multimode Microplate Reader (Berthold Technologies, Bad Wildbad, Germany) for concentration–response curves. ebBRET values were obtained by calculating the ratio of the light emitted by the energy acceptor over the light emitted by the energy donor (donor 410 ± 70 nm/acceptor 515 ± 20 nm). […] They were then fitted and analyzed in GraphPad Prism (v9.0, GraphPad Software, Inc., San Diego, CA, USA). […]

NTSR1-Venus [3] = target: T1, NTSR1-Venus; assay: Gq activation ebBRET (Gq EMTA, p63RhoGEF-RlucII / rGFP-CAAX) in HEK293 cells, Venus tagged NTSR1; format: cell-based; settings: mean ± SEM
Excerpt: as §1, §2, §3

NTSR1-RlucII = target: T3, NTSR1-RlucII (Mus musculus, UniProt O88319); assay: NTSR1-RlucII internalization ebBRET assay (NTSR1-RlucII donor, rGFP-CAAX acceptor) in HEK293 cells; format: cell-based
T3 construct: expressed in transfected cells; host or cells: HEK293 (HEK293SL)
T3 sequence (O88319 whole entry): as above
Procedure: Cells were maintained in Dulbecco’s Modified Eagle Medium (DMEM, Wisent, Saint-Jean-Baptiste, QC, Canada) supplemented with 10% fetal bovine serum (FBS, Wisent) and 1% antibiotics [100 U/mL penicillin and 100 μg/mL streptomycin (PS); Wisent]. Cells were grown at 37°C in 5% CO2 and 90% humidity and checked for mycoplasma contamination. Two days prior to experiments, cells were trypsinized (Wisent) and 35,000 cells were transfected with 1 μg of total DNA containing the appropriate expression vectors/biosensors. The total quantity of DNA was completed at 1 μg with salmon sperm DNA (Invitrogen, Waltham, MA, USA). Transfection was performed using the transfecting agent polyethylenimine 25 kD linear (PEI; Polysciences, Warrington, PA, USA) at a ratio of 3:1 PEI/DNA. Cells were then immediately plated onto poly-ornithine (Sigma-Aldrich) coated 96-well white culture plates (PerkinElmer, Waltham, MA, USA).
Forty-eight hours post-transfection, cells were washed once with phosphate-buffered saline (PBS) then incubated 1 h at 37°C in Tyrode buffer (137 mM NaCI, 0.9 mM KCI, 1 mM MgCI2, 1 1.9 mM NaHCO3, 3.6 mM NaH2PO4, 25 mM HEPES, 5.5 mM Glucose, and 1 mM CaCI2, pH 7.4). Cells were then treated with the ligands and prior to measurement treated with the substrate (5 min with 2.5 μM Coelantarazine 400a). Bioluminescence resonance energy transfer (BRET) was then measured between RlucII (BRET energy donor) and rGFP (enhanced bystander ebBRET acceptor)–tagged proteins. BRET values were read for 1 s per well using a Mithras™ LB940 Multimode Microplate Reader (Berthold Technologies, Bad Wildbad, Germany) for concentration–response curves. ebBRET values were obtained by calculating the ratio of the light emitted by the energy acceptor over the light emitted by the energy donor (donor 410 ± 70 nm/acceptor 515 ± 20 nm). Data were collected using the MicroWin 2000 software (Berthold Technologies, Bad Wildbad, Germany). They were then fitted and analyzed in GraphPad Prism (v9.0, GraphPad Software, Inc., San Diego, CA, USA).
A decrease in BRET indicates receptor loss from the plasma membrane. […] Data are expressed as raw BRET signal (Mean ± SEM) from five independent experiments.
We set-up an enhanced bystander bioluminescence energy resonance transfer (ebBRET) assay by fusing RlucII at the NTSR1 C-tail and expressing this construct together with rGFP-CAAX in HEK293 cells (Figure 1A).

CCOC(=O)[C@H](CC(C)C)NC(=O)[C@@H](NC(=O)[C@H](Cc1c[nH]c2ccccc12)NC(=O)[C@@H]1CCCN1C(=O)[C@H](CCCCN)NC[C@@H](N)CCCCN)C(C)(C)C [PD149163, PD149163 tetrahydrochloride hydrate] (H-[X1]PW[Tle]L-OEt; N-terminus and C-terminus assumed)
intracellular calcium peak increase ([1]; 0.1 μM): 2 fold
intracellular calcium peak increase ([1]; 1 μM): 2 fold
time course of NTSR1-Venus in early endosomes (NTSR1-Venus [2]; 1 μM, 5 to 60 min): remained stable
NTSR1-Venus internalization, live confocal imaging (NTSR1-Venus [2]; 1 μM, 20 min live imaging of hippocampal neurons): robust internalization of the receptor
percentage of endosomes containing NTSR1 after 60 min, PD149163 vs neurotensin (NTSR1-Venus [2]; 1 μM, 60 min): significantly higher percentage
NTSR1-Venus redistribution to endosomes (% EEA1 vesicles) (NTSR1-Venus [2]; 1 μM, within the first 5 min of agonist treatment): 92.7% ± 6.9
EC50 (NTSR1-Venus [2]; Ntsr1^Venus/Venus hippocampal neurons, 5 min of agonist treatment, read-out: EC50, NTSR1-Venus endocytosis (ratio of Venus and EEA1 positive to total EEA1 positive endosomes)): 465 nM
EC50 (NTSR1; given as LogEC50 (negative sign), read-out: Potency [LogEC50 (M)], Gq activation, NTSR1 (converted)): 2.81e-08 M
Efficacy (Raw BRET), Gq activation, NTSR1 (NTSR1): 0.220 Raw BRET and 0.220 ± 0.013 Raw BRET
EC50 (NTSR1-Venus [3]; given as LogEC50 (negative sign), read-out: Potency [LogEC50 (M)], Gq activation, NTSR1-Venus (converted)): 3.05e-08 M
Efficacy (Raw BRET), Gq activation, NTSR1-Venus (NTSR1-Venus [3]): 0.476 Raw BRET and 0.476 ± 0.009 Raw BRET
EC50 (NTSR1-RlucII; NTSR1-RlucII, read-out: potency to induce NTSR1 internalization): 3.07e-07 M
Efficacy (Raw BRET), NTSR1-RlucII internalization (NTSR1-RlucII; decrease in BRET = receptor loss from membrane, mean ± SEM): −0.245 Raw BRET and −0.245 ± 0.008 Raw BRET
EC50 (NTSR1-RlucII; given as LogEC50 (negative sign), mean ± SEM, five independent experiments, read-out: Potency [LogEC50 (M)], NTSR1-RlucII internalization (converted)): 3.07e-07 M
